{"source": "patent US20250270564A1", "about": "“EXTRACELLULAR VESICLE SECRETION BOOSTER FOR BOOSTING EXTRACELLULAR VESICLE SECRETION, AND USE THEREOF” (THEORIA SCIENCE INC., priority 2021, published 2025)", "key": {"A549": {"test_system": "A549", "assay": "Amount of secreted EVs (ExoScreen / NTA method)", "format": "cell-based, human", "settings": "inhibitor at 10 nmol/L or 100 nmol/L, FIG. 11", "description": "(§1) For preparation of a secreted EV sample for the ExoScreen method, cells were cultured and supernatant was collected as follows. First, cells were seeded in a 96-well plate using a serum-supplemented medium (the medium according to the type of cells) at 5×10^3 cells/medium 0.1 mL/well (Day 0). After incubation for 24 hours (Day 1), 10 fmol of the miRNA was added, and the cells were transfected with the miRNA using a transfection agent (product name Dhermafect1, manufactured by Dhermacon, the same shall apply hereinafter) according to the instructions for use. […]\n(§2) For preparation of a secreted EV sample for the NTA method, cells were cultured and supernatant was collected and purified as follows. […] After collecting the supernatant, the number of cells in each well was counted. […]\nEV detection was performed using an exosome marker CD9 or C63 according to the ExoScreen method. EV detection was performed using an AlphaLISA reagent (Perkin Elmer) composed of AlphaScreen streptavidin-coated donor beads (6760002), AlphaLISA unconjugated acceptor beads (6062011), and an AlphaLISA universal buffer (AL001F), a 96-well half-area white plate (6005560, Perkin Elmer), and a detection device EnSpire Alpha 2300 Mutilabel plate reader (Perkin Elmer). […]"}, "HCT116": {"test_system": "HCT116", "assay": "Amount of secreted EVs (ExoScreen / NTA method)", "format": "cell-based, human", "settings": "inhibitor at 10 nmol/L or 100 nmol/L, FIG. 12", "description": "as §1, with “[…],” for “10 fmol of the miRNA was added,”\nas §2\nEV detection was performed using an exosome marker CD9 or C63 according to the ExoScreen method. EV detection was performed using an AlphaLISA reagent (Perkin Elmer) composed of AlphaScreen streptavidin-coated donor beads (6760002), AlphaLISA unconjugated acceptor beads (6062011), and an AlphaLISA universal buffer (AL001F), a 96-well half-area white plate (6005560, Perkin Elmer), and a detection device EnSpire Alpha 2300 Mutilabel plate reader (Perkin Elmer). […] Next, luminescence in the wells of the plate was measured using the detection device with the excitation wavelength set to 680 nm and the emission detection wavelength set to 615 nm. […]"}}}
{"smiles": "CC(C)(Sc1cc(C(C)(C)C)c(O)c(C(C)(C)C)c1)Sc1cc(C(C)(C)C)c(O)c(C(C)(C)C)c1", "note": "[probucol]", "values": [{"measurement": "EV secretion compared with NC", "setting": "A549", "value": "particularly effectively boosted EV secretion"}, {"measurement": "EV secretion compared with NC", "setting": "HCT116", "value": "particularly effectively boosted EV secretion"}]}
